From ChEMBL document CHEMBL5705888, “Substrate specificity and inhibitors of LRRK2, a protein kinase mutated in Parkinson's disease” (Biochem J, 2009) come the findings set out here.

Experiment [1] addresses Calcium/calmodulin-dependent protein kinase kinase 2 (Homo sapiens) (UniProt Q96RR4). Briefly: Inhibition of CaMKKbeta (unknown origin) at 1 uM incubated for 30 mins in presence of [gamma-33P]ATP by multidrop micro reagent based assay relative to control; values are per cent of control.
Experiment [2] deals with Serine/threonine-protein kinase PLK1 (Homo sapiens) (UniProt P53350). As to the kind of experiment: Inhibition of PLK1 (unknown origin) at 1 uM incubated for 30 mins in presence of [gamma-33P]ATP by multidrop micro reagent based assay relative to control; values are per cent of control.
In experiment [3] the target is Serine/threonine-protein kinase PAK 6 (Homo sapiens) (UniProt Q9NQU5). Briefly: Inhibition of PAK6 (unknown origin) at 1 uM incubated for 30 mins in presence of [gamma-33P]ATP by multidrop micro reagent based assay relative to control.
Experiment [4] concerns the target Calcium/calmodulin-dependent protein kinase type 1 (Homo sapiens) (UniProt Q14012). As to the kind of experiment: Inhibition of CaMK1 (unknown origin) at 1 uM incubated for 30 mins in presence of [gamma-33P]ATP by multidrop micro reagent based assay relative to control; values are per cent of control.
For experiment [5], the target named is Fibroblast growth factor receptor 1 (Homo sapiens) (UniProt P11362). As to the kind of experiment: Inhibition of FGFR1 (unknown origin) at 1 uM incubated for 30 mins in presence of [gamma-33P]ATP by multidrop micro reagent based assay relative to control.
Experiment [6] has as its target Ribosomal protein S6 kinase alpha-5 (Homo sapiens) (UniProt O75582). Briefly: Inhibition of MSK1 (unknown origin) at 1 uM incubated for 30 mins in presence of [gamma-33P]ATP by multidrop micro reagent based assay relative to control; values are per cent of control.
Experiment [7] deals with Myosin light chain kinase, smooth muscle (Homo sapiens) (UniProt Q15746). As to the kind of experiment: Inhibition of SmMLCK (unknown origin) at 1 uM incubated for 30 mins in presence of [gamma-33P]ATP by multidrop micro reagent based assay relative to control; values are per cent of control.
Experiment [8] addresses Ephrin type-A receptor 2 (Homo sapiens) (UniProt P29317). As to the kind of experiment: Inhibition of EPH A2 (unknown origin) at 1 uM incubated for 30 mins in presence of [gamma-33P]ATP by multidrop micro reagent based assay relative to control; values are per cent of control.
For experiment [9], the target named is Ribosomal protein S6 kinase alpha-3 (Homo sapiens) (UniProt P51812). As to the kind of experiment: Inhibition of RSK2 (unknown origin) at 1 uM incubated for 30 mins in presence of [gamma-33P]ATP by multidrop micro reagent based assay relative to control; values are per cent of control.
Ribosomal protein S6 kinase alpha-3 (Homo sapiens), sequence (P51812 whole entry): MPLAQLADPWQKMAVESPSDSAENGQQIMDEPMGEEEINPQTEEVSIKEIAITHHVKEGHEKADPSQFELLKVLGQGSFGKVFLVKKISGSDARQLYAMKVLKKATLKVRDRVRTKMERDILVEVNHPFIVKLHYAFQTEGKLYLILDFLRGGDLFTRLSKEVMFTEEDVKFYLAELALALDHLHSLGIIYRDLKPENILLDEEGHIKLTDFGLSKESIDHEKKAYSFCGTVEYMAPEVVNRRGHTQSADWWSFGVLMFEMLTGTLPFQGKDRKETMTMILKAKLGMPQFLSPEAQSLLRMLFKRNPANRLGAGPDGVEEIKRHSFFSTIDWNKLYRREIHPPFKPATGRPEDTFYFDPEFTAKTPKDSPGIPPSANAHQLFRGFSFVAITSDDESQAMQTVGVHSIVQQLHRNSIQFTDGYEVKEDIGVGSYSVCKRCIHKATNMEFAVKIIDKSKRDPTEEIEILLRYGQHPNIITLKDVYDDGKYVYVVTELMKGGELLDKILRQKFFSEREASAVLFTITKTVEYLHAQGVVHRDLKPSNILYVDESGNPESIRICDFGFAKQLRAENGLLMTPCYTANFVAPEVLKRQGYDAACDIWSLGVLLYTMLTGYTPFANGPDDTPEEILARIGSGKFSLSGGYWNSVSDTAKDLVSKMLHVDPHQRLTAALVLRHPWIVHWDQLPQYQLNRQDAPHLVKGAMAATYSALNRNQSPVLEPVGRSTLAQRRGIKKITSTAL
In experiment [10] the target is cAMP-dependent protein kinase (PKA) (Homo sapiens) (UniProt P22694+P17612+P22612). As to the kind of experiment: Inhibition of PKA (unknown origin) at 1 uM incubated for 30 mins in presence of [gamma-33P]ATP by multidrop micro reagent based assay relative to control; values are per cent of control.
Experiment [11] deals with T1, Mitogen-activated protein kinase kinase kinase kinase 2 (Homo sapiens) (UniProt Q12851).
T1 sequence (whole entry): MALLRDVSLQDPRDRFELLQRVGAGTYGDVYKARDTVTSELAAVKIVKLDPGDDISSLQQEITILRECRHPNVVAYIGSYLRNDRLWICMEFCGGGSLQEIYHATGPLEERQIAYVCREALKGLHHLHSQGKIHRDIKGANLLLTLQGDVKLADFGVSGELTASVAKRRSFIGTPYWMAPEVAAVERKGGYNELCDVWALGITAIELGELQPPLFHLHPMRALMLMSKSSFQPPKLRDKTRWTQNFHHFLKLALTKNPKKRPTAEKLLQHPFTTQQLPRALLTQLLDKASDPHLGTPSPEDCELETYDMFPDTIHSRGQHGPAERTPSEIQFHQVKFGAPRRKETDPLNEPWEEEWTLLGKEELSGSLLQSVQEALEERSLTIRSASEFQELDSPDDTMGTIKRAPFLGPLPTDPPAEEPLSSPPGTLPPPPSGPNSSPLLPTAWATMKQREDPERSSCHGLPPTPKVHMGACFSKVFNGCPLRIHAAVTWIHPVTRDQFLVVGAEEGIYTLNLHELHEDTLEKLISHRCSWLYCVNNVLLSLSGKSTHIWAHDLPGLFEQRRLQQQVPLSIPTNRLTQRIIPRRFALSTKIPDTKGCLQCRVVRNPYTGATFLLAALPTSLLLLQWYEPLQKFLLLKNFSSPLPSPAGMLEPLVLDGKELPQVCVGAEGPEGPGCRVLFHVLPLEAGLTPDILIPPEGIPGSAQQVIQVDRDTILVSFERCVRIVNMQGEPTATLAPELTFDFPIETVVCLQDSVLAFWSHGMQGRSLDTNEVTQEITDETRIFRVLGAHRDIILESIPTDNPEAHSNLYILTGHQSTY
As to the kind of experiment: Inhibition of GCK (unknown origin) at 1 uM incubated for 30 mins in presence of [gamma-33P]ATP by multidrop micro reagent based assay relative to control.

Experiment [12] has as its target Leucine-rich repeat serine/threonine-protein kinase 2 (Homo sapiens, UniProt Q5S007). As to the kind of experiment: Inhibition of LRRK2 (unknown origin) at 1 uM incubated for 30 mins in presence of [gamma-33P]ATP by multidrop micro reagent based assay relative to control; values are per cent of control.
For experiment [13], the target named is Tyrosine-protein kinase BTK (Homo sapiens) (UniProt Q06187). Briefly: Inhibition of BTK (unknown origin) at 1 uM incubated for 30 mins in presence of [gamma-33P]ATP by multidrop micro reagent based assay relative to control.
Experiment [14] deals with Misshapen-like kinase 1 (Homo sapiens) (UniProt Q8N4C8). As to the kind of experiment: Inhibition of MINK1 (unknown origin) at 1 uM incubated for 30 mins in presence of [gamma-33P]ATP by multidrop micro reagent based assay relative to control.
For experiment [15], the target named is Protein kinase C alpha type (Homo sapiens) (UniProt P17252). Briefly: Inhibition of PKCalpha (unknown origin) at 1 uM incubated for 30 mins in presence of [gamma-33P]ATP by multidrop micro reagent based assay relative to control; values are per cent of control.
Experiment [16] concerns the target MAP kinase-interacting serine/threonine-protein kinase 2 (Homo sapiens) (UniProt Q9HBH9). As to the kind of experiment: Inhibition of MNK2 (unknown origin) at 1 uM incubated for 30 mins in presence of [gamma-33P]ATP by multidrop micro reagent based assay relative to control; values are per cent of control.
In experiment [17] the target is Serine/threonine-protein kinase PAK 5 (Homo sapiens) (UniProt Q9P286). As to the kind of experiment: Inhibition of PAK5 (unknown origin) at 1 uM incubated for 30 mins in presence of [gamma-33P]ATP by multidrop micro reagent based assay relative to control; values are per cent of control.

Calcium/calmodulin-dependent protein kinase type 1 (Homo sapiens), sequence (Q14012 whole entry, looked up): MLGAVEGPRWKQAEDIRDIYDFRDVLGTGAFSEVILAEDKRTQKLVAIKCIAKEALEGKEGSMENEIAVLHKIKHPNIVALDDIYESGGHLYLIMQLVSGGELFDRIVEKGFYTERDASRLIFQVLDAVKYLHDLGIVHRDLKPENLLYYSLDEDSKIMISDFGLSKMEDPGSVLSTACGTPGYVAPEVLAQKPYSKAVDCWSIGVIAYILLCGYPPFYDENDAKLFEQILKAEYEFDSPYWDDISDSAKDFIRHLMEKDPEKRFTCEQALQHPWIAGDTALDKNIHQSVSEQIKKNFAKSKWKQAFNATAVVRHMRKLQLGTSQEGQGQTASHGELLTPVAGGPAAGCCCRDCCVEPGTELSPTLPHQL
Leucine-rich repeat serine/threonine-protein kinase 2, sequence (Q5S007 whole entry): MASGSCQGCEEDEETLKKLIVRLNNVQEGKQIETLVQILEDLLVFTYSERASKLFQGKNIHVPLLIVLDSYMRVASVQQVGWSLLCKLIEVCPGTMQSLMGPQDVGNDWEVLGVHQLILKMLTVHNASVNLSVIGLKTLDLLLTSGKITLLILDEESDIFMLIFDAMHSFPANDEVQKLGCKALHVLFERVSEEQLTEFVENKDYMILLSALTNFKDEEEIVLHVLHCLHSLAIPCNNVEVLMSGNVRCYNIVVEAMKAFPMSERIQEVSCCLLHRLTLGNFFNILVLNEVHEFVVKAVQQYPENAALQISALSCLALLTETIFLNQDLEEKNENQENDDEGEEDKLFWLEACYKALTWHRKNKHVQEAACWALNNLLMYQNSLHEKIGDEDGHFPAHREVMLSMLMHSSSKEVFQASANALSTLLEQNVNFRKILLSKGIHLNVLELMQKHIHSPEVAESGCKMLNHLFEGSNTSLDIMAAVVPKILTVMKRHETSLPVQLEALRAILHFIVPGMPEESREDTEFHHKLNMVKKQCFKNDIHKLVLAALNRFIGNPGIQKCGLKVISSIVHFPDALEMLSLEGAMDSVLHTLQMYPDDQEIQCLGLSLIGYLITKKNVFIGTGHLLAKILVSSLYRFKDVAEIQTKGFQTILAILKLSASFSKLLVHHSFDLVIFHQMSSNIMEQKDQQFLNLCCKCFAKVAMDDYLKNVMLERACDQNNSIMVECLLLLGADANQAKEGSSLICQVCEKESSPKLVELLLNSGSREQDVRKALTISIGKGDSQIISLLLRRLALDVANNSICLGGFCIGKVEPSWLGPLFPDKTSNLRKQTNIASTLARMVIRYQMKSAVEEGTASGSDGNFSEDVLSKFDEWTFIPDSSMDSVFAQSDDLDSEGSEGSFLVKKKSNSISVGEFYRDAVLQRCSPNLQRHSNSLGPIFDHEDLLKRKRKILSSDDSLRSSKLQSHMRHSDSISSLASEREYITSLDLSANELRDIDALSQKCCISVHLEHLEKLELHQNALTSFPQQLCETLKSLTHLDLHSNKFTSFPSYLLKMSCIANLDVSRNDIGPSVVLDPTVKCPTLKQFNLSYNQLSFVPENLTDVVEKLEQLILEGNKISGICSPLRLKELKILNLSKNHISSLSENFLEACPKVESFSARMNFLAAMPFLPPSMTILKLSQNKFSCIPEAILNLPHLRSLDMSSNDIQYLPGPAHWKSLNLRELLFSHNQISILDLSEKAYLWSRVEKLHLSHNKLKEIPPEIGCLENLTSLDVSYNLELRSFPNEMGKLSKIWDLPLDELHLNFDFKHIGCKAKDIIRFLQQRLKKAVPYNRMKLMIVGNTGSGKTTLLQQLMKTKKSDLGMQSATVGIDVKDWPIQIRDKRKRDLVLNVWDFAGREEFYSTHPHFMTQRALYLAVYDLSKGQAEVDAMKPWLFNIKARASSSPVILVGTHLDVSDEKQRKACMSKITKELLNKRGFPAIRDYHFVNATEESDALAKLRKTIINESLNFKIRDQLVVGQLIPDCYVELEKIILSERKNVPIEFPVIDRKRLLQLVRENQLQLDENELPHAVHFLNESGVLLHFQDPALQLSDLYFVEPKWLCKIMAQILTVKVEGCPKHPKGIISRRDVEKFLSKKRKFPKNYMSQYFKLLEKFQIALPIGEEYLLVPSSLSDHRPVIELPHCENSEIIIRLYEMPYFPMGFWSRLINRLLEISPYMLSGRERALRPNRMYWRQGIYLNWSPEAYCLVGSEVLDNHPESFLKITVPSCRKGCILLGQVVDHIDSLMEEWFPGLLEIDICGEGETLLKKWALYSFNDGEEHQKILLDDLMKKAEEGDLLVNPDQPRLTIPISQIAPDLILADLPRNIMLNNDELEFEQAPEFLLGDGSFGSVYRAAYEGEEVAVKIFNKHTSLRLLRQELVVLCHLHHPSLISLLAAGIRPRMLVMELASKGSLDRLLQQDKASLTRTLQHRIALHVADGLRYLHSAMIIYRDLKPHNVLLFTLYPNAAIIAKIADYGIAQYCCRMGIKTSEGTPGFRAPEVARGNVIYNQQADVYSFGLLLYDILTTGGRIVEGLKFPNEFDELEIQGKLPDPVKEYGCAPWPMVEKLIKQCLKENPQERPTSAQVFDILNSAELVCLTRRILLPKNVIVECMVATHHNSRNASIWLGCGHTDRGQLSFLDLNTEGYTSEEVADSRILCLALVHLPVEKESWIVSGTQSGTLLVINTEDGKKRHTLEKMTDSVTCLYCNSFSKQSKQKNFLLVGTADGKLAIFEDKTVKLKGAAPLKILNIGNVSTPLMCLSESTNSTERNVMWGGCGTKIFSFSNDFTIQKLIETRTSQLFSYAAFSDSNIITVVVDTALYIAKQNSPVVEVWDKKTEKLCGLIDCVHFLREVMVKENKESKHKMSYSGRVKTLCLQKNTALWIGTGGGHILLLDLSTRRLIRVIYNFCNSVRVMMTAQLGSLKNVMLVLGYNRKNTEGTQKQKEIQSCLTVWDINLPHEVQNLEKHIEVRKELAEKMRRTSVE
MAP kinase-interacting serine/threonine-protein kinase 2 (Homo sapiens), sequence (Q9HBH9 whole entry, looked up): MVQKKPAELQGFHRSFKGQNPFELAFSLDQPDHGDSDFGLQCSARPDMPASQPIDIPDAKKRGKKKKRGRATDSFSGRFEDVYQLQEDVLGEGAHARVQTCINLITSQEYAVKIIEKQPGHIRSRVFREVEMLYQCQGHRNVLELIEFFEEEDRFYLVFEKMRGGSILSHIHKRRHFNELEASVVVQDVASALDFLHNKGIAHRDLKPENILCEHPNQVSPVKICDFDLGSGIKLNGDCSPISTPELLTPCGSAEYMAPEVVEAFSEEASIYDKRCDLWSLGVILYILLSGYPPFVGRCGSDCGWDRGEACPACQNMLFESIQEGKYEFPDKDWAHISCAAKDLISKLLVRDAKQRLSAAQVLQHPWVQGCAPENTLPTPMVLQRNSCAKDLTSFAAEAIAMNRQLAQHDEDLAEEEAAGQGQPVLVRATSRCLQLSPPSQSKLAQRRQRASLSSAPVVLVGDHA
Ribosomal protein S6 kinase alpha-5 (Homo sapiens), sequence (O75582 whole entry, looked up): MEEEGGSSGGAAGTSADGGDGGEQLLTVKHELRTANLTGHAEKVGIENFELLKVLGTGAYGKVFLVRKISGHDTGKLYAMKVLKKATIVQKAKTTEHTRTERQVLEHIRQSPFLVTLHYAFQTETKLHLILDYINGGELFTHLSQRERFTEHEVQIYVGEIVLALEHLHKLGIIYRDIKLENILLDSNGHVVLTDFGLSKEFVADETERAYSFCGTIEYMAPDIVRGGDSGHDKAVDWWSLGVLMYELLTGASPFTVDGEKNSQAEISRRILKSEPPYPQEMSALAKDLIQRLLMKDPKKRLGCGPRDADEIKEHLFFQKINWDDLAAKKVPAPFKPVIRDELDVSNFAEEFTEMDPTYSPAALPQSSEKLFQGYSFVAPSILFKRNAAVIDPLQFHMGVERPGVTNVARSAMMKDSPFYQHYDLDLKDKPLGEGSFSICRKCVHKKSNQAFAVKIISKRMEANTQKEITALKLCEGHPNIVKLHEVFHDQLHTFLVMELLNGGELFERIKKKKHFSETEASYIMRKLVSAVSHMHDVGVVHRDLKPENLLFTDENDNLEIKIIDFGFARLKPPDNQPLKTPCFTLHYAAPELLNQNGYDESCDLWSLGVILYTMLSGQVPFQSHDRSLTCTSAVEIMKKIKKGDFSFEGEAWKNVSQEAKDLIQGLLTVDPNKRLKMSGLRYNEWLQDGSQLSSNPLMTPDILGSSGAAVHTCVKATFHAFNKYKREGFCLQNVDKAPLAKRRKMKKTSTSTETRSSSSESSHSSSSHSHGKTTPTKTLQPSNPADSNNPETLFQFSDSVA

As to `CC1=C(C(=O)Nc2cc3cn[nH]c3cc2F)C(c2ccc(C(F)(F)F)cc2)CC(=O)N1` (stereo not given), the residual activity in experiment [1] stood at 100%; in experiment [2], 102%; in experiment [3] it was 109%; in experiment [4], 102%; in experiment [6] it was 20%; in [7] it was 73%. The residual activity in [8] worked out at 105%; in experiment [9], 48%; in experiment [10], 88%; in [11], 97%; in [12] it was 98%; in experiment [14], 75%. Also, the residual activity stood at 82% in [15], 88% in experiment [16] and 107% in experiment [17]. The values for the inhibition in experiment [5] and in experiment [13] were 95% and 66%, respectively.
On to `Cc1cncc2cccc(S(=O)(=O)N3CCCNC[C@@H]3C)c12`, for which the residual activity in [1] was 81%; in [2] it was 105%; in [3], 103%; in experiment [4], 105%; in [6], 39%; in [7], 96%. The residual activity in [8] was 49%; in experiment [9], 76%; in [10] it was 76%; in [11], 56%; in experiment [12], 20%; in experiment [14], 104%. In addition, the residual activity is 70% in experiment [15], 49% in [16] and 100% in [17]. Also, the inhibition (in general, the relative decrease from the control value, in per cent) was determined as 35% in [5] and 82% in [13].
As for `CCn1c(-c2nonc2N)nc2cnc(Oc3cccc(NC(=O)c4ccc(OCCN5CCOCC5)cc4)c3)cc21` [GSK-269962A], the residual activity is 98% in experiment [1]; 105% in experiment [2]; 106% in experiment [3]; 122% in experiment [4]; 1% in [6]; 65% in experiment [7]. Moreover, the residual activity in experiment [8] was 108%; in [9], 24%; in experiment [10], 22%; in [11], 78%; in experiment [12], 71%; in experiment [14], 70%. For the same compound, the figures for the residual activity in experiment [15], in experiment [16] and in [17] were 32%, 51% and 102%, respectively. Also, the inhibition in experiment [13] is 107%.
For the compound `CCN(CC)CCNC(=O)c1c(C)[nH]c(/C=C2\C(=O)Nc3ccc(F)cc32)c1C`, the residual activity in experiment [1] is 39%; in experiment [6], 60%; in experiment [9] it was 41%; in experiment [14] it was 8%. In addition, the inhibition in experiment [5] amounted to 29%.
